Data as given in patent publication US20190151329A1, “THERAPEUTIC USE OF DIAMINOPHENOTHIAZINES” (WisTa Laboratories Ltd., priority 2007, published 2019).
Several values for one entry are separate records, joined by “and”; a condition that tells them apart may be missing. Identical values can stand only once. Like-named read-outs stand apart in the source and are kept apart here.

What was measured:
[1] = Pig single oral dose pharmacokinetic study (blood and brain); assay type: in vivo, pigs; conditions: single oral 20 mg/kg
Procedure: Finally, a comparison was made between the compartment predictions and the results from an oral study in which pigs were administered a single 20 mg/kg dose, and brain levels of MT were determined. […] Blood (0.5, 1, 2, 4, 8, 12, 24 and 48 h) and urine (1, 2, 3, 4, 5, 6, 7, 8, 12, and 24 h) were collected at regular timepoints up to 48 hrs. Two animals were sacrificed at each of 1, 8, 24 and 48 h post dose and brain samples retained. Pharmacokinetic evaluation of the free base of MTC was performed on whole blood and brain tissue samples. Two batches of brain tissue sample were extracted for each animal and analysed essentially as described by Peter et al (2000).
Brain tissue (500 mg) was vortexed and then extracted with dichloroethane (5 ml) and the organic phase taken to dryness under nitrogen. The extract was taken up with methanol and separated by reverse-phase HPLC with ultraviolet detection.

[2] = cited from earlier work; for L-MT urinary excretion rate / Ox-MT urinary excretion rate: 10 mg MTC oral
[3] = rats; IV; within 2 minutes; cited from earlier work
[4] = cited from earlier work; for Blood Ox-MT concentration: human whole blood, 100 mg MTC IV
[5] = human, time 0.5 hr (mid-time 0.25 hr)
[6] = human, time 1 hr (mid-time 0.75 hr)
[7] = human, time 2 hr (mid-time 1.5 hr)
[8] = human, time 3 hr (mid-time 2.5 hr)
[9] = human, time 4 hr (mid-time 3.5 hr)
[10] = human, time 6 hr (mid-time 5 hr)
[11] = human, time 9 hr (mid-time 7.5 hr)
[12] = human, time 24 hr (mid-time 16.5 hr)
[13] = human, time 33 hr (mid-time 28.5 hr)
[14] = human, time 48 hr (mid-time 40.5 hr)
[15] = human, time 57 hr (mid-time 52.5 hr)
[16] = human, time 72 hr (mid-time 64.5 hr)
[17] = human, time 81 hr (mid-time 76.5 hr)
[18] = human, time 96 hr (mid-time 88.5 hr)
[19] = human, time 105 hr (mid-time 100.5 hr)
[20] = human, time 120 hr (mid-time 112.5 hr)
[21] = human, 10 mg oral, non-compartmental secondary parameter
[22] = human, 10 mg oral, urinary excretion data

CN(C)c1ccc2nc3ccc(=[N+](C)C)cc-3sc2c1 [MTC, methylthioninium chloride]
half-life ([1]; brain, read-out: terminal elimination half-life, brain (converted)): 23.5 h
half-life ([1]; whole blood, read-out: terminal elimination half-life, blood (converted)): 23.5 h
terminal elimination half-life deduced by DiSanto and Wagner ([2]; from urinary excretion data): 15 to 16.5 h
L-MT urinary excretion rate [2, 5]: 14.01 µg/h
Ox-MT urinary excretion rate [2, 5]: 2.31 µg/h
L-MT urinary excretion rate [2, 6]: 385.06 µg/h
Ox-MT urinary excretion rate [2, 6]: 20.59 µg/h
L-MT urinary excretion rate [2, 7]: 659.14 µg/h
Ox-MT urinary excretion rate [2, 7]: 38.66 µg/h
L-MT urinary excretion rate [2, 8]: 474.29 µg/h
Ox-MT urinary excretion rate [2, 8]: 50.56 µg/h
L-MT urinary excretion rate [2, 9]: 384.43 µg/h
Ox-MT urinary excretion rate [2, 9]: 40.66 µg/h
L-MT urinary excretion rate [2, 10]: 290.50 µg/h
Ox-MT urinary excretion rate [2, 10]: 53.01 µg/h
L-MT urinary excretion rate [2, 11]: 120.29 µg/h
Ox-MT urinary excretion rate [2, 11]: 42.86 µg/h
L-MT urinary excretion rate [2, 12]: 78.72 µg/h
Ox-MT urinary excretion rate [2, 12]: 37.99 µg/h
L-MT urinary excretion rate [2, 13]: 41.87 µg/h
Ox-MT urinary excretion rate [2, 13]: 24.34 µg/h
L-MT urinary excretion rate [2, 14]: 26.77 µg/h
Ox-MT urinary excretion rate [2, 14]: 11.02 µg/h
L-MT urinary excretion rate [2, 15]: 14.11 µg/h
Ox-MT urinary excretion rate [2, 15]: 5.00 µg/h
L-MT urinary excretion rate [2, 16]: 7.88 µg/h
Ox-MT urinary excretion rate [2, 16]: 4.98 µg/h
L-MT urinary excretion rate [2, 17]: 6.39 µg/h
Ox-MT urinary excretion rate [2, 17]: 2.53 µg/h
L-MT urinary excretion rate [2, 18]: 3.09 µg/h
Ox-MT urinary excretion rate [2, 18]: 1.74 µg/h
L-MT urinary excretion rate [2, 19]: 3.02 µg/h
Ox-MT urinary excretion rate [2, 19]: 1.23 µg/h
L-MT urinary excretion rate [2, 20]: 1.91 µg/h
Ox-MT urinary excretion rate [2, 20]: 0.88 µg/h
MRT, Free (Ox-MTC) ([2]; human, 10 mg oral): 24.5000 h
MRT, Leuco (L-MT) ([2]; human, 10 mg oral): 16.8774 h
T½ (distribution), Free (Ox-MTC) ([2]; human, 10 mg oral): 0.5930 h
T½ (distribution), Leuco (L-MT) ([2]; human, 10 mg oral): 1.1530 h
T½ (elimination), Free (Ox-MTC) ([2]; human, 10 mg oral): 15.0364 h
T½ (elimination), Leuco (L-MT) ([2]; human, 10 mg oral): 16.4953 h
Urinary excretion (% of total), Free (Ox-MT) ([2]; human, 10 mg oral): 23% and 22.94%
Urinary excretion (% of total), Leuco (L-MT) ([2]; human, 10 mg oral): 77% and 77.06%
total urinary recovery ([2]; human, 10 mg oral): 65 % of dose
AUC, Leuco (L-MT) [2, 21]: 4981.55 µg·h
CI, Free (Ox-MTC) [2, 21]: 6.7420 L/h
CI, Leuco (L-MT) [2, 21]: 2.0074 L/h
F (calculated bioavailability), Free (Ox-MTC) [2, 21]: 0.1483
F (calculated bioavailability), Leuco (L-MT) [2, 21]: 0.4982
Vc, Free (Ox-MTC) [2, 21]: 4.4188 L
Vc, Leuco (L-MT) [2, 21]: 4.1152 L
K12, Free (Ox-MTC) [2, 22]: 0.7506
K12, Leuco (L-MT) [2, 22]: 0.2962
K21, Free (Ox-MTC) [2, 22]: 0.2381
Kel (terminal elimination rate constant), Free (Ox-MTC) [2, 22]: 0.2263
Kel (terminal elimination rate constant), Leuco (L-MT) [2, 22]: 0.2430
Tlag, Free (Ox-MTC) [2, 22]: 0.2078 h
Tlag, Leuco (L-MT) [2, 22]: 0.2381 h
VcF (Vc × F), Leuco (L-MT) [2, 22]: 8.2607 L
terminal elimination half-life (Ox-MT and L-MT comparable) [2, 22]: ~16 h
corrected apparent central volume (Ox-MT and L-MT comparable) ([2]; in vivo, po): 4 L
dose recovered from the major organs [3]: approximately 25%
terminal elimination half-life deduced by Peter et al. ([4]; from analysis of blood concentration data): 5.5 to 6.3 h
Blood Ox-MT concentration ([4]; 0.09 hr): 6.06 µmol/L
Blood Ox-MT concentration ([4]; 0.15 hr): 3.32 µmol/L
Blood Ox-MT concentration ([4]; 0.24 hr): 1.73 µmol/L
Blood Ox-MT concentration ([4]; 0.33 hr): 1.65 µmol/L
Blood Ox-MT concentration ([4]; 0.5 hr): 0.78 µmol/L
Blood Ox-MT concentration ([4]; 0.65 hr): 0.61 µmol/L
